In patent US20160272992A1, “PROTECTION OF PLANTS AGAINST OXIDATIVE STRESS” (priority 2013, published 2016):

Legend:
[1] = system: Arabidopsis first leaves; experiment: Abaxial epidermal cell number of first leaves of plants grown on HU; assay type: in vivo, Arabidopsis thaliana; conditions: for reduction in epidermal cell number: grown 3 weeks on 1 mM HU, first leaves
Procedure: The smr5 (SALK_100918) and smr7 (SALK_128496) alleles were acquired from the Arabidopsis Biological Research Center. The atm-1, atr-2 and sog1-1 mutants have been described previously (Garcia et al., 2003; Preuss and Britt, 2003; Culligan et al., 2004; Yoshiyama et al., 2009). Unless stated otherwise, plants of Arabidopsis thaliana (L.) Heyhn (ecotype Columbia), were grown under long-day conditions (16 hours of light, 8 hours of darkness) at 22° C. on half-strength Murashige and Skoog (MS) germination medium (Murashige and Skoog, 1962). Arabidopsis plants were treated with HU as described by Cools et al. (2011). For bleomycin treatments, five-day-old seedlings were transferred into liquid MS medium supplemented with 0.3 μg/mL bleomycin. For γ-irradiation treatments, five-day-old in vitro-grown plantlets were irradiated with γ-rays at a dose of 20 Gy. For light treatments, one-week-old seedlings were transferred to continuous high-light conditions (growth rooms kept at 22° C. with 24-hour day/0-hour night cycles and a light intensity of 300-400 μmol m^−2 s^−1) for 2 days, and subsequently retransferred to low-light conditions. The first leaf pair was harvested and incubated in 100% ethanol for epidermis cell drawing as described by De Veylder et al. (2001).
For leaf measurements, first leaves were harvested at 21 days after sowing on control medium, medium supplemented with 1 mM hydroxyurea or 0.3 μg/mL bleomycin. […] The total (blade) area was determined from images digitized directly with a digital camera (Olympus BX51 microscope) mounted on a binocular (Stemi SV 11; Zeiss). From scanned drawing-tube images of the outlines of at least 30 cells of the abaxial epidermis located between 25% to 75% of the distance between the tip and the base of the leaf, halfway between the midrib and the leaf margin, the following parameters were determined: total area of all cells in the drawing and total numbers of pavement and guard cells, from which the average cell area was calculated. […] For confocal microscopy, root meristems were analyzed 2 days after transfer using a Zeiss LSM 510 Laser Scanning Microscope and the LSM Browser version 4.2 software (Zeiss). […] GFP fluorescence was detected with the 488-nm line of an Argon laser. GFP and PI were detected simultaneously by combining the settings indicated above in the sequential scanning facility of the microscope. Acquired images were quantitatively analyzed with the ImageJ v1.45s software (on the World Wide Web at rsbweb.nih.gov/ij/) and Cell-o-Tape plug-ins (French et al., 2012). Chlorophyll a fluorescence parameters were measured using the IMAGING PAM M-Series Chlorofyll Fluorescence (Walz) and associated software. […]

[2] = system: 5-day-old wild-type root tips; conditions: 2-mM hydroxyurea; cited from earlier work
[3] = system: catalase; experiment: Catalase assay (H2O2 breakdown by leaf protein extract); assay type: biochemical, Arabidopsis thaliana; conditions: extracts of control plants germinated on 1 mM HU
Procedure: Plants were germinated on either control medium, medium with 1 mM HU or 6 μM 3-AT. Leaf tissue of 10 plants was ground in 200 μL extraction buffer (60 mM Tris (pH 6.9), 1 mM phenylmethylsulfonylfluoride, 10 mM DTT) on ice. The homogenate was centrifuged at 13,000 g for 15 minutes at 4° C. A total of 45 μg protein extract was mixed with potassium phosphate buffer (50 mM, pH 7.0) (Vandenabeele et al., 2004). After addition of 11.4 μL H2O2 (7.5%), the absorbance of the sample at 240 nm after 0 and 60 seconds was measured to determine catalase activity by H2O2 breakdown (Beers and Sizer, 1952; Vandenabeele et al., 2004).

SMILES: NC(=O)NO [HU, hydroxyurea]
- reduction in leaf size and cell number ([1]; SMR5^KO SMR7^KO double mutant, 1 mM HU, compared with single knockouts): even less
- reduction in epidermal cell number ([1]; SMR5^KO plants): 29%
- reduction in epidermal cell number ([1]; SMR7^KO plants): 30%
- reduction in epidermal cell number ([1]; control plants (Col-0)): 47%
- HU 24 h/0 h fold change, AT1G07500 (Siamese-related 5) [2]: 7.863
- HU 24 h/0 h fold change, AT1G09815 (polymerase delta 4) [2]: 2.354
- HU 24 h/0 h fold change, AT1G12020 (unknown protein) [2]: 1.873
- HU 24 h/0 h fold change, AT1G13330 (Hop2 homolog) [2]: 2.949
- HU 24 h/0 h fold change, AT1G17460 (TRF-like 3) [2]: 2.378
- HU 24 h/0 h fold change, AT1G30600 (Subtilase family protein) [2]: 1.711
- HU 24 h/0 h fold change, AT1G31280 (Argonaute family protein) [2]: 1.866
- HU 24 h/0 h fold change, AT1G49030 (PLAC8 family protein) [2]: 1.553
- HU 24 h/0 h fold change, AT1G59660 (Nucleoporin autopeptidase) [2]: 1.860
- HU 24 h/0 h fold change, AT1G76180 (Dehydrin family protein) [2]: 1.659
- HU 24 h/0 h fold change, AT2G18600 (Ubiquitin-conjugating enzyme family protein) [2]: 5.521
- HU 24 h/0 h fold change, AT2G21790 (ribonucleotide reductase 1) [2]: 2.514
- HU 24 h/0 h fold change, AT2G30360 (SOS3-interacting protein 4) [2]: 2.274
- HU 24 h/0 h fold change, AT2G31320 (poly(ADP-ribose) polymerase 2) [2]: 2.445
- HU 24 h/0 h fold change, AT2G36910 (ATP binding cassette subfamily B1) [2]: 1.569
- HU 24 h/0 h fold change, AT2G45460 (SMAD/FHA domain-containing protein) [2]: 2.378
- HU 24 h/0 h fold change, AT2G46610 (RNA-binding RRM/RBD/RNP motifs family protein) [2]: 3.593
- HU 24 h/0 h fold change, AT2G47680 (zinc finger CCCH type helicase family protein) [2]: 3.422
- HU 24 h/0 h fold change, AT3G02400 (SMAD/FHA domain-containing protein) [2]: 2.479
- HU 24 h/0 h fold change, AT3G07800 (Thymidine kinase) [2]: 7.160
- HU 24 h/0 h fold change, AT3G12510 (MADS-box family protein) [2]: 2.266
- HU 24 h/0 h fold change, AT3G15240 (Serine/threonine-protein kinase WNK-related) [2]: 1.790
- HU 24 h/0 h fold change, AT3G20490 (unknown protein) [2]: 2.313
- HU 24 h/0 h fold change, AT3G25250 (AGC kinase family protein) [2]: 1.853
- HU 24 h/0 h fold change, AT3G27060 (Ferritin/ribonucleotide reductase-like family protein) [2]: 4.595
- HU 24 h/0 h fold change, AT3G27620 (alternative oxidase 1C) [2]: 2.056
- HU 24 h/0 h fold change, AT3G27950 (GDSL-like Lipase/Acylhydrolase superfamily protein) [2]: 1.641
- HU 24 h/0 h fold change, AT3G42860 (zinc knuckle CCHC-type family protein) [2]: 2.445
- HU 24 h/0 h fold change, AT3G45730 (unknown protein) [2]: 5.637
- HU 24 h/0 h fold change, AT4G02390 (Poly(ADP-ribose) polymerase) [2]: 7.701
- HU 24 h/0 h fold change, AT4G04750 (Major facilitator superfamily protein) [2]: 1.625
- HU 24 h/0 h fold change, AT4G11740 (Ubiquitin-like superfamily protein) [2]: 1.653
- HU 24 h/0 h fold change, AT4G15480 (UDP-Glycosyltransferase superfamily protein) [2]: 2.196
- HU 24 h/0 h fold change, AT4G19130 (Replication factor-A protein 1-related) [2]: 2.305
- HU 24 h/0 h fold change, AT4G21070 (Breast cancer susceptibility1) [2]: 10.375
- HU 24 h/0 h fold change, AT4G22960 (Unknown function DUF544) [2]: 5.315
- HU 24 h/0 h fold change, AT4G28950 (RHO-related protein from plants 9) [2]: 9.680
- HU 24 h/0 h fold change, AT4G29170 (Mnd1 family protein) [2]: 2.898
- HU 24 h/0 h fold change, AT4G35740 (DEAD/DEAH box RNA helicase family protein) [2]: 2.594
- HU 24 h/0 h fold change, AT5G02220 (unknown protein; SMR4) [2]: 4.500
- HU 24 h/0 h fold change, AT5G03780 (TRF-like 10) [2]: 7.111
- HU 24 h/0 h fold change, AT5G06190 (unknown protein) [2]: 2.878
- HU 24 h/0 h fold change, AT5G11460 (Protein of unknown function DUF581) [2]: 5.483
- HU 24 h/0 h fold change, AT5G14920 (Gibberellin-regulated family protein) [2]: 2.789
- HU 24 h/0 h fold change, AT5G14930 (senescence-associated gene 101) [2]: 1.542
- HU 24 h/0 h fold change, AT5G20850 (RAS associated with diabetes protein 51) [2]: 4.643
- HU 24 h/0 h fold change, AT5G24280 (Gamma-irradiation and mitomycin c induced 1) [2]: 4.823
- HU 24 h/0 h fold change, AT5G25810 (Integrase-type DNA-binding superfamily protein) [2]: 1.558
- HU 24 h/0 h fold change, AT5G40840 (Rad21/Rec8-like family protein) [2]: 3.375
- HU 24 h/0 h fold change, AT5G48720 (X-ray induced transcript 1) [2]: 5.296
- HU 24 h/0 h fold change, AT5G49480 (Ca2+-binding protein 1) [2]: 1.952
- HU 24 h/0 h fold change, AT5G55490 (Gamete expressed protein 1) [2]: 1.670
- HU 24 h/0 h fold change, AT5G60100 (pseudo-response regulator 3) [2]: 1.619
- HU 24 h/0 h fold change, AT5G60250 (Zinc finger C3HC4-type RING finger family protein) [2]: 8.907
- HU 24 h/0 h fold change, AT5G64060 (NAC domain containing protein 103) [2]: 5.579
- HU 24 h/0 h fold change, AT5G66130 (RADIATION SENSITIVE 17) [2]: 2.888
- HU 24 h/0 h fold change, AT5G66985 (unknown protein) [2]: 3.294
- HU 24 h/0 h fold change, AT5G67360 (Subtilase family protein) [2]: 1.676
- HU 24 h/0 h fold change, AT5G67460 (O-Glycosyl hydrolases family 17 protein) [2]: 2.799
- H2O2 decomposition rate of plant extracts [3]: reduced H2O2 decomposition rate
